Literature values, collected in patent US20220220558A1, “METHODS AND SYSTEMS FOR PROGNOSIS OF A PATIENT'S RESPONSE TO TREATMENT OF ANDROGENETIC SKIN DISORDERS” (priority 2008, published 2022).

System: female androgenetic alopecia
Conditions: clinical trials

Compound: CC(C)(C)NC(=O)[C@H]1CC[C@H]2[C@@H]3CC[C@H]4NC(=O)C=C[C@]4(C)[C@H]3CC[C@]12C [finasteride]
- affect on hair re-growth in women: statistically not significant
